From patent US11485742B2, “2-azaspiro[3.4]octane derivatives as M4 agonists” (NOVARTIS AG, priority 2019, dated 2022)

Biological target: T1, human cloned CHRM2 receptor (Homo sapiens, UniProt P08172)
T1 construct: expressed in transfected cells; host or cells: CHO-K1 (M2_CHO)
T1 sequence (P08172 1-466): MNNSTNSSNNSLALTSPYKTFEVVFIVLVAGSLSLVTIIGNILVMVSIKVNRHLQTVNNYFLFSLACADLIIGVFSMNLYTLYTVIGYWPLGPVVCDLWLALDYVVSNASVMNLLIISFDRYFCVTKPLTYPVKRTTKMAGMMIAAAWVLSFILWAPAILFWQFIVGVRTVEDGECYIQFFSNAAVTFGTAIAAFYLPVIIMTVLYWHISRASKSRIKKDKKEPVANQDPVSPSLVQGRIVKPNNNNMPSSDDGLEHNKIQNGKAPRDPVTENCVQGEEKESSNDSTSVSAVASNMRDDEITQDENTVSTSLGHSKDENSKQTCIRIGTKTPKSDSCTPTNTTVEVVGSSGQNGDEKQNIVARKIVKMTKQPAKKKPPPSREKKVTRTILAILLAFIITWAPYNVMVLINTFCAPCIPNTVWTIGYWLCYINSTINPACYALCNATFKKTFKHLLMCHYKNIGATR
Test: CHRM2 Ca++ Flux Assay (M2_CHO cells, agonist mode)
Assay type: cell-based
Conditions: M2 CHO cells; for EC50: agonist mode, geometric mean if tested more than once, read-out: M2 FDSS EC50; for Emax: Percent Activity (PA) measured to EC100 of Carbachol, read-out: M2 FDSS PA %
How it was run: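 Agonist activity was expressed as percent of the carbachol EC100 response, fitted by four-parameter regression on triplicate wells, with geometric means across repeat runs. Calcium traces over 3 minutes came from dye-loaded M2_CHO cells (12K/well) pre-incubated 60 min in Ca/Mg-free HBSS with 20 mM HEPES, 2.5 mM probenecid and 20 μM ATP.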

| SMILES | EC50 | Emax |
| --- | --- | --- |
| c1ccc(C2CCN([C@@H]3COC4(C3)CN(c3nnco3)C4)CC2)c(-c2cncnc2)c1 [Example 1W, (S)-2-(1,3,4-oxadiazol-2-yl)-7-(4-(2-(pyrimidin-5-yl)phenyl)piperidin-1-yl)-5-oxa-2-azaspiro[3.4]octane] | 527 nM | 68% |
| CCc1nnc(COc2ccc(F)cc2C2CCN([C@@H]3COC4(C3)CN(c3nnco3)C4)CC2)s1 [Example 2T, (S)-7-(4-(2-((5-ethyl-1,3,4-thiadiazol-2-yl)methoxy)-5-fluorophenyl)piperidin-1-yl)-2-(1,3,4-oxadiazol-2-yl)-5-oxa-2-azaspiro[3.4]octane] | 41 nM | 44% |
| CC(C)(O)COc1ccc(F)cc1C1CCN([C@@H]2COC3(C2)CN(c2nnco2)C3)CC1 [Example 1U, (S)-1-(2-(1-(2-(1,3,4-oxadiazol-2-yl)-5-oxa-2-azaspiro[3.4]octan-7-yl)piperidin-4-yl)-4-fluorophenoxy)-2-methylpropan-2-ol] | > 25000 nM | 0% |
| CC(C)(O)CCOc1cc(F)ccc1C1CCN([C@@H]2COC3(C2)CN(c2nnco2)C3)CC1 [Example 1T, (S)-4-(2-(1-(2-(1,3,4-oxadiazol-2-yl)-5-oxa-2-azaspiro[3.4]octan-7-yl)piperidin-4-yl)-5-fluorophenoxy)-2-methylbutan-2-ol] | > 25000 nM | 0% |
| Cc1nnc(COc2ccc(F)cc2C2CCN([C@@H]3COC4(C3)CN(c3nnco3)C4)CC2)o1 [Example 2F, (S)-7-(4-(5-fluoro-2-((5-methyl-1,3,4-oxadiazol-2-yl)methoxy)phenyl)piperidin-1-yl)-2-(1,3,4-oxadiazol-2-yl)-5-oxa-2-azaspiro[3.4]octane] | 113 nM | 67% |
| c1ccc(C2CCN([C@@H]3COC4(C3)CN(c3nnco3)C4)CC2)c(O[C@@H]2CCOC2)c1 [Example 1O, (S)-2-(1,3,4-oxadiazol-2-yl)-7-(4-(2-(((R)-tetrahydrofuran-3-yl)oxy)phenyl)piperidin-1-yl)-5-oxa-2-azaspiro[3.4]octane] | 611 nM | 36% |
| COC(C)(C)CCOc1ccc(F)cc1C1CCN([C@@H]2COC3(C2)CN(c2nnco2)C3)CC1 [Example 1K, (S)-7-(4-(5-fluoro-2-(3-methoxy-3-methylbutoxy)phenyl)piperidin-1-yl)-2-(1,3,4-oxadiazol-2-yl)-5-oxa-2-azaspiro[3.4]octane] | > 25000 nM | 0% |
| COc1ccc(F)cc1C1CCN([C@@H]2COC3(C2)CN(c2nnco2)C3)CC1 [Example 1V, (S)-7-(4-(5-fluoro-2-methoxyphenyl)piperidin-1-yl)-2-(1,3,4-oxadiazol-2-yl)-5-oxa-2-azaspiro[3.4]octane] | 598 nM | 35% |
| Fc1cc(O[C@@H]2CCOC2)c(C2CCN([C@@H]3COC4(C3)CN(c3nnco3)C4)CC2)cc1F [Example 1R, (S)-7-(4-(4,5-difluoro-2-(((R)-tetrahydrofuran-3-yl)oxy)phenyl)piperidin-1-yl)-2-(1,3,4-oxadiazol-2-yl)-5-oxa-2-azaspiro[3.4]octane] | 359 nM | 32% |
| Fc1ccc(OC[C@H]2CCOC2)c(C2CCN([C@@H]3COC4(C3)CN(c3nnco3)C4)CC2)c1 [Example 1I, (S)-7-(4-(5-fluoro-2-(((S)-tetrahydrofuran-3-yl)methoxy)phenyl)piperidin-1-yl)-2-(1,3,4-oxadiazol-2-yl)-5-oxa-2-azaspiro[3.4]octane] | 531 nM | 32% |
| Cc1cc(COc2ccc(F)cc2C2CCN([C@@H]3COC4(C3)CN(c3nnco3)C4)CC2)on1 [Example 2G, (S)-7-(4-(5-fluoro-2-((3-methylisoxazol-5-yl)methoxy)phenyl)piperidin-1-yl)-2-(1,3,4-oxadiazol-2-yl)-5-oxa-2-azaspiro[3.4]octane] | 61 nM | 55% |

Now from value to compound:

| EC50 | Emax | SMILES |
| --- | --- | --- |
| > 25000 nM | 0% | Fc1ccc(OC2CC3(COC3)C2)c(C2CCN([C@H]3COC4(C3)CN(c3nnco3)C4)CC2)c1 [Example 7A, (R)-7-(4-(2-((2-oxaspiro[3.3]heptan-6-yl)oxy)-5-fluorophenyl)piperidin-1-yl)-2-(1,3,4-oxadiazol-2-yl)-5-oxa-2-azaspiro[3.4]octane] |
| 623 nM | 18% | Fc1ccc(OC2CCOCC2)c(C2CCN([C@@H]3COC4(C3)CN(c3ncon3)C4)CC2)c1 [Example 6A, (S)-7-(4-(5-fluoro-2-((tetrahydro-2H-pyran-4-yl)oxy)phenyl)piperidin-1-yl)-2-(1,2,4-oxadiazol-3-yl)-5-oxa-2-azaspiro[3.4]octane] |
| 20700 nM | 30% | Fc1ccc(OC2CC3(COC3)C2)c(C2CCN([C@@H]3COC4(C3)CN(c3nncs3)C4)CC2)c1 [Example 5W, (S)-7-(4-(2-((2-oxaspiro[3.3]heptan-6-yl)oxy)-5-fluorophenyl)piperidin-1-yl)-2-(1,3,4-thiadiazol-2-yl)-5-oxa-2-azaspiro[3.4]octane] |
| > 25000 nM | 0% | CC(C)(O)CCOc1cc(F)ccc1C1CCN([C@@H]2COC3(C2)CN(c2nncs2)C3)CC1 [Example 5V, (S)-4-(2-(1-(2-(1,3,4-thiadiazol-2-yl)-5-oxa-2-azaspiro[3.4]octan-7-yl)piperidin-4-yl)-5-fluorophenoxy)-2-methylbutan-2-ol] |
